Consider eleven compounds from patent US20250127801A1, “BRIDGED TRICYCLIC CARBAMOYLPYRIDONE COMPOUNDS AND USES THEREOF” (priority 2023, published 2025).

≈ marks a conversion by molar mass, not a printed value. Where two headings read alike, the source gives them in different places.

A short description of one data set: physchem. Conditions: 23 °C, thermodynamic from solid; for solubility thermodynamic: fassif; for solubility thermodynamic at 24 h: FaSSIF.
The next data set is described as follows: in vitro. Particulars: human; for CC50 at 5 days: uninfected MT-4 cells.
The subject of another data set is HIV-1 (IIIB). Description: microbe, parasite or virus in culture. In kind it is cell-based.
[1] abbreviates: Human immunodeficiency virus 1, IIIB, MT4, 120 h, read-out: MT4 EC50 (nM).
The mark [2] stands for this setting: Human immunodeficiency virus 1, MT4, 120 h, HIV-1 (IIIB) replication in MT-4 cells, 5 days incubation, Cell Titer Glo, read-out: MT4 EC50.

In turn, `CC1=NO[C@@]2(CC[C@H](C)N3C[C@H]2n2cc(C(=O)NCc4ccc(F)cc4F)c(=O)c(OC(=O)CC(C)(C)c4c(C)cc(C)cc4OP(=O)(O)O)c2C3=O)C1` [Compound 26, (3′S,5S,7′R)-10′-((2,4-difluorobenzyl)carbamoyl)-3,3′-dimethyl-1′,11′-dioxo-1′,4′,5′,11′-tetrahydro-3′H,4H,7′H-spiro[isoxazole-5,6′-[2,7]methanopyrido[1,2-a][1,4]diazonin]-12′-yl 3-(2,4-dimethyl-6-(phosphonooxy)phenyl)-3-methylbutanoate] gave a thermodynamic solubility in “physchem” of 4300 µg/mL (≈ 5.57 mM). This compound yielded a CC50 in “in vitro” of 12.2 µM. Moreover, the 50% effective concentration (EC50) in the data set on HIV-1 (IIIB) (setting [1]) was found to be 1.13 nM.

Consider `CCCCCCCCCCCCCC(=O)Oc1ccc(C(=O)Oc2c3n(cc(C(=O)NCc4ccc(F)cc4F)c2=O)[C@@H]2CN(C3=O)[C@@H](C)CC[C@]23CC(C)=NO3)cc1` [Compound 100, (3′S,5S,7′R)-10′-((2,4-difluorobenzyl)carbamoyl)-3,3′-dimethyl-1′,11′-dioxo-1′,4′,5′,11′-tetrahydro-3′H,4H,7′H-spiro[isoxazole-5,6′-[2,7]methanopyrido[1,2-a][1,4]diazonin]-12′-yl 4-(tetradecanoyloxy)benzoate], for which the thermodynamic solubility at 24 h in “physchem” came out at 64.5 µg/mL (≈ 0.079 mM). The compound further had a CC50 at 5 days in the data set “in vitro” of 12.8 µM. Further, the EC50 with HIV-1 (IIIB) (setting [2]) is 2.94 nM.

The compound `CC1=NO[C@@]2(CC[C@H](C)N3C[C@H]2n2cc(C(=O)NCc4ccc(F)cc4F)c(=O)c(OCOC(=O)CC(C)(C)c4c(CC(=O)O)cc(C)cc4OP(=O)(O)O)c2C3=O)C1` [Compound 20, 2-(2-(4-((((3′S,5S,7′R)-10′-((2,4-difluorobenzyl)carbamoyl)-3,3′-dimethyl-1′,11′-dioxo-1′,4′,5′,11′-tetrahydro-3′H,4H,7′H-spiro[isoxazole-5,6′-[2,7]methanopyrido[1,2-a][1,4]diazonin]-12′-yl)oxy)methoxy)-2-methyl-4-oxobutan-2-yl)-5-methyl-3-(phosphonooxy)phenyl)acetic acid] displayed a solubility (thermodynamic) in “physchem” of 4410 µg/mL (≈ 5.22 mM). Also, the CC50 in “in vitro” turned out to be 12.5 µM. Besides, the 50% effective concentration (EC50) with HIV-1 (IIIB) (setting [1]) worked out at 1.76 nM.

`CC1=NO[C@@]2(CC[C@H](C)N3C[C@H]2n2cc(C(=O)NCc4ccc(F)cc4F)c(=O)c(OC(=O)[C@@H]4CCCN4C(=O)OCOP(=O)(O)O)c2C3=O)C1` [Compound 17, 2-((3′S,5S,7′R)-10′-((2,4-difluorobenzyl)carbamoyl)-3,3′-dimethyl-1′,11′-dioxo-1′,4′,5′,11′-tetrahydro-3′H,4H,7′H-spiro[isoxazole-5,6′-[2,7]methanopyrido[1,2-a][1,4]diazonin]-12′-yl) 1-((phosphonooxy)methyl) (2S)-pyrrolidine-1,2-dicarboxylate] displayed a thermodynamic solubility at 24 h in “physchem” of 2540 µg/mL (≈ 3.45 mM). For the same compound, the CC50 at 5 days in “in vitro” was found to be 13 µM. Further, in the data set with HIV-1 (IIIB) (setting [2]), the EC50 was determined as 0.93 nM.

`CC1=NO[C@@]2(CC[C@H](C)N3C[C@H]2n2cc(C(=O)NCc4ccc(F)cc4F)c(=O)c(OCOC(=O)OCc4ccc(OP(=O)(O)O)cc4)c2C3=O)C1` [Compound 19, (((3′S,5S,7′R)-10′-((2,4-difluorobenzyl)carbamoyl)-3,3′-dimethyl-1′,11′-dioxo-1′,4′,5′,11′-tetrahydro-3′H,4H,7′H-spiro[isoxazole-5,6′-[2,7]methanopyrido[1,2-a][1,4]diazonin]-12′-yl)oxy)methyl (4-(phosphonooxy)benzyl) carbonate]: in “physchem”, the thermodynamic solubility is 390 µg/mL (≈ 0.522 mM). Further, the CC50 in “in vitro” came out at 10.9 µM. Further, the concentration giving a half-maximal response (EC50) with HIV-1 (IIIB) (setting [1]) stood at 0.71 nM.

In the case of `CC1=NO[C@@]2(CC[C@H](C)N3C[C@H]2n2cc(C(=O)NCc4ccc(F)cc4F)c(=O)c(OCc4ccc(OP(=O)(O)O)cn4)c2C3=O)C1` [Compound 71, 6-((((3′S,5S,7′R)-10′-((2,4-difluorobenzyl)carbamoyl)-3,3′-dimethyl-1′,11′-dioxo-1′,4′,5′,11′-tetrahydro-3′H,4H,7′H-spiro[isoxazole-5,6′-[2,7]methanopyrido[1,2-a][1,4]diazonin]-12′-yl)oxy)methyl)pyridin-3-yl dihydrogen phosphate], the thermodynamic solubility in “physchem” was 3470 µg/mL. The compound further showed a CC50 in the data set “in vitro” of 9.3 µM. Moreover, the EC50 with HIV-1 (IIIB) (setting [1]) is 1.02 nM.

As for `CC1=NO[C@@]2(CC[C@H](C)N3C[C@H]2n2cc(C(=O)NCc4ccc(F)cc4F)c(=O)c(OCOC(=O)CC(C)(C)c4c(CC(=O)N[C@@H](CC(=O)O)C(=O)O)cc(C)cc4OP(=O)(O)O)c2C3=O)C1` [Compound 43, (2-(2-(4-((((3′S,5S,7′R)-10′-((2,4-difluorobenzyl)carbamoyl)-3,3′-dimethyl-1′,11′-dioxo-1′,4′,5′,11′-tetrahydro-3′H,4H,7′H-spiro[isoxazole-5,6′-[2,7]methanopyrido[1,2-a][1,4]diazonin]-12′-yl)oxy)methoxy)-2-methyl-4-oxobutan-2-yl)-5-methyl-3-(phosphonooxy)phenyl)acetyl)-L-aspartic acid], the solubility (thermodynamic) in “physchem” amounted to 5280 µg/mL (≈ 5.5 mM). In addition, the CC50 in the data set “in vitro” was determined as 30.7 µM. In the data set with HIV-1 (IIIB) (setting [1]), the EC50 was determined as 2.64 nM.

Regarding `CC1=NO[C@@]2(CC[C@H](C)N3C[C@H]2n2cc(C(=O)NCc4ccc(F)cc4F)c(=O)c(OCOC(=O)N(C)c4ncccc4CN(CC(=O)O)C(=O)OCOP(=O)(O)O)c2C3=O)C1` [Compound 7, N-((2-((((((3′S,5S,7′R)-10′-((2,4-difluorobenzyl)carbamoyl)-3,3′-dimethyl-1′,11′-dioxo-1′,4′,5′,11′-tetrahydro-3′H,4H,7′H-spiro[isoxazole-5,6′-[2,7]methanopyrido[1,2-a][1,4]diazonin]-12′-yl)oxy)methoxy)carbonyl)(methyl)amino)-pyridin-3-yl)methyl)-N-(((phosphonooxy)methoxy)carbonyl)glycine], in “physchem”, the solubility (thermodynamic) at 24 h came to 4660 µg/mL (≈ 5.22 mM). In addition, the CC50 at 5 days in “in vitro” came to 10.8 µM. Moreover, the EC50 in the data set on HIV-1 (IIIB) (setting [2]) came out at 1.48 nM.

In “physchem”, `CC1=NO[C@@]2(CC[C@H](C)N3C[C@H]2n2cc(C(=O)NCc4ccc(F)cc4F)c(=O)c(OC(=O)N(C)c4ncccc4CN(C)C(=O)OCOP(=O)(O)O)c2C3=O)C1` [Compound 61, (phosphonooxy)methyl ((2-(((((3′S,5S,7′R)-10′-((2,4-difluorobenzyl)carbamoyl)-3,3′-dimethyl-1′,11′-dioxo-1′,4′,5′,11′-tetrahydro-3′H,4H,7′H-spiro[isoxazole-5,6′-[2,7]methanopyrido[1,2-a][1,4]diazonin]-12′-yl)oxy)carbonyl)(methyl)amino)pyridin-3-yl)methyl)(methyl)carbamate] returned a solubility (thermodynamic) of 4140 µg/mL (≈ 5.07 mM). In addition, the CC50 in the data set “in vitro” was 15.2 µM. In the data set with HIV-1 (IIIB) (setting [1]), the concentration for a half-maximal effect (EC50) was 1.39 nM.

`COC1=NO[C@@]2(CC[C@H](C)N3C[C@H]2n2cc(C(=O)NCc4ccc(F)cc4F)c(=O)c(OC(=O)N(C)c4ncccc4CN(CC(=O)O)C(=O)OCOP(=O)(O)O)c2C3=O)C1` [Compound 59, N-((2-(((((3′S,5S,7′R)-10′-((2,4-difluorobenzyl)carbamoyl)-3-methoxy-3′-methyl-1′,11′-dioxo-1′,4′,5′,11′-tetrahydro-3′H,4H,7′H-spiro[isoxazole-5,6′-[2,7]methanopyrido[1,2-a][1,4]diazonin]-12′-yl)oxy)carbonyl)(methyl)amino)pyridin-3-yl)methyl)-N-(((phosphonooxy)methoxy)carbonyl)glycine]: the solubility (thermodynamic) in “physchem” came out at 5280 µg/mL (≈ 6.01 mM). Moreover, in “in vitro”, the CC50 came out at 10.6 µM. The EC50 with HIV-1 (IIIB) (setting [1]) worked out at 1.2 nM.

In turn, `CC1=NO[C@@]2(CC[C@H](C)N3C[C@H]2n2cc(C(=O)NCc4ccc(F)cc4F)c(=O)c(OCOC(=O)CC(C)(C)c4c(C)cc(C)cc4OP(=O)(O)O)c2C3=O)C1` [Compound 27] showed a solubility (thermodynamic) in the data set “physchem” of 2260 µg/mL (≈ 2.82 mM). The same compound returned a CC50 in the data set “in vitro” of 16.9 µM. Also, the EC50 in the data set with HIV-1 (IIIB) (setting [1]) is 2.75 nM.

One may read the thermodynamic solubility as solubility found after equilibrating the solid with the medium. Broadly, the EC50 is the midpoint of the concentration-response curve.
